Reference: ChEMBL document CHEMBL4411307, “N,N'-diaryl-bishydrazones in a biphenyl platform: Broad spectrum antifungal agents” (Eur J Med Chem, 2019)
Values after ≈ are worked out from the molar mass of the structure shown. Active and inactive are the calls of the source. The rule behind the calls is not given here.

What was measured:
[1] = Selectivity index, ratio of compound concentration showing <20 to <30% hemolysis in mouse RBC to MIC for fluconazole/ITC-susceptible Candida albicans ATCC MYA-2876; type: toxicity; details: red blood cells (erythrocytes), read-out: Selectivity Index
[2] = Selectivity index, ratio of CC50 for human A549 cells to MIC for Aspergillus nidulans ATCC 38163; type: toxicity; details: read-out: Selectivity Index
[3] = Hemolytic activity in mouse RBC at 62.5 ug/ml after 1 hr relative to control; type: ADME, cell-based, Erythrocyte; details: red blood cells (erythrocytes), read-out: Activity
[4] = Hemolytic activity in mouse RBC at 3.9 ug/ml after 1 hr relative to control; type: ADME, cell-based, Erythrocyte; details: red blood cells (erythrocytes), read-out: Activity
[5] = Selectivity index, ratio of compound concentration showing <20 to <30% hemolysis in mouse RBC to MIC for Candida parapsilosis ATCC 22019; type: toxicity; details: mouse red blood cells (RBC), read-out: Selectivity Index
[6] = Selectivity index, ratio of CC50 for human A549 cells to MIC for fluconazole/ITC-resistant Candida albicans ATCC MYA-1003; type: toxicity; details: read-out: Selectivity Index
Candida albicans [7] = test: Antifungal activity against fluconazole/ITC-susceptible Candida albicans ATCC MYA-2310 measured after 48 hrs by CLSI M27-A3 protocol based method; type: functional; details: ATCC MYA-2310, 48 h
[8] = Selectivity index, ratio of compound concentration showing <20 to <30% hemolysis in mouse RBC to MIC for Aspergillus flavus ATCC MYA-3631; type: toxicity; details: mouse red blood cells (RBC), read-out: Selectivity Index
[9] = Selectivity index, ratio of compound concentration showing <20 to <30% hemolysis in mouse RBC to MIC for fluconazole/ITC-resistant Candida albicans ATCC 10231; type: toxicity; details: red blood cells (erythrocytes), read-out: Selectivity Index
[10] = Selectivity index, ratio of compound concentration showing <20 to <30% hemolysis in mouse RBC to MIC for fluconazole/ITC-resistant Candida albicans ATCC 64124; type: toxicity; details: red blood cells (erythrocytes), read-out: Selectivity Index
Aspergillus flavus = test: Antifungal activity against Aspergillus flavus ATCC MYA-3631 measured after 48 hrs by CLSI M38-A2 protocol based method; type: functional; details: ATCC MYA-3631, 48 h
Candida albicans [11] = test: Fungicidal activity against fluconazole/ITC-resistant Candida albicans ATCC 64124 assessed as reduction in fungal growth at 0.5 to 2 times MIC incubated for 24 hrs followed by replating on PDA plates measured after 48 hrs Time-Kill assay; type: functional, organism-based
[12] = Selectivity index, ratio of CC50 for human A549 cells to MIC for Candida krusei ATCC 6258; type: toxicity; details: read-out: Selectivity Index
Aspergillus nidulans = test: Antifungal activity against Aspergillus nidulans ATCC 38163 measured after 48 hrs by CLSI M38-A2 protocol based method; type: functional; details: ATCC 38163, 48 h
[13] = Selectivity index, ratio of CC50 for human A549 cells to MIC for fluconazole/ITC-resistant Candida albicans ATCC 64124; type: toxicity; details: read-out: Selectivity Index
[14] = target: Voltage-gated inwardly rectifying potassium channel KCNH2 (Homo sapiens, UniProt Q12809); test: Inhibition of [3H]-dofetilide binding to human ERG expressed in HEK293 cell membranes measured after 1 hr by liquid scintillation counting method
Sequence of Voltage-gated inwardly rectifying potassium channel KCNH2 (Q12809 whole entry): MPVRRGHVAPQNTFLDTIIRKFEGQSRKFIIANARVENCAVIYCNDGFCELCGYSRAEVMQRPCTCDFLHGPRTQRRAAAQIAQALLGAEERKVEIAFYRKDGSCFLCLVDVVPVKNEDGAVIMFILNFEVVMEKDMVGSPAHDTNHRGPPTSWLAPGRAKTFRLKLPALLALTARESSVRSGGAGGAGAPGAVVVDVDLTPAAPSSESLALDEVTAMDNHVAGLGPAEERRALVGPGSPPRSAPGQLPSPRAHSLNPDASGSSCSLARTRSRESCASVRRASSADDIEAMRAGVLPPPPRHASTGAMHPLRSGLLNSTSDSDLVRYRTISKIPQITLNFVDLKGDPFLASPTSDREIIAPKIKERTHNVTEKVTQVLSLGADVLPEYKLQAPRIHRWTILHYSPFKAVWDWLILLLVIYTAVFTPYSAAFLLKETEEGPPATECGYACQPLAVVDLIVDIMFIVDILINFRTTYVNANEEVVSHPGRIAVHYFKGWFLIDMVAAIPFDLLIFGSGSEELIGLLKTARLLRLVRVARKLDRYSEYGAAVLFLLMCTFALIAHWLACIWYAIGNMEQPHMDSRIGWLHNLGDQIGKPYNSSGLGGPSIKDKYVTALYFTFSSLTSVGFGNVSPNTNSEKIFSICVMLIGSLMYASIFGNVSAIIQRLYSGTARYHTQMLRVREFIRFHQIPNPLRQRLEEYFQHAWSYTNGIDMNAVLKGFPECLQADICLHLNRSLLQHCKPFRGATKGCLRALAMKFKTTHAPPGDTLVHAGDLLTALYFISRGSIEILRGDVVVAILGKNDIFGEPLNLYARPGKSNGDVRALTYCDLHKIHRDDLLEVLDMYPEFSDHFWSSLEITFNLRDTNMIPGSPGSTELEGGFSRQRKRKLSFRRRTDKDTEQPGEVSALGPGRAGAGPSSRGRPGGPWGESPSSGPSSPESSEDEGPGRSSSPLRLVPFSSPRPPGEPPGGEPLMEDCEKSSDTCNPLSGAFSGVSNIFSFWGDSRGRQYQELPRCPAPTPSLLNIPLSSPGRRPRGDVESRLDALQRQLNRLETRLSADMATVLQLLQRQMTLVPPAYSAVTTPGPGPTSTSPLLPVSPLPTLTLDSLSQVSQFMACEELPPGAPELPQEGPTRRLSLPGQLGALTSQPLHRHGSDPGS

A549 = test: Cytotoxicity against human A549 cells after 24 hrs by resazurin based assay; type: cell-based; details: a549, 24 h
[15] = Hemolytic activity in mouse RBC at 1.95 ug/ml after 1 hr relative to control; type: ADME, cell-based, Erythrocyte; details: red blood cells (erythrocytes), read-out: Activity
Candida albicans [16] = test: Antibiofilm activity against fluconazole/ITC-resistant Candida albicans ATCC 64124 assessed as reduction in sessile growth after 24 hrs by XTT assay; type: functional; details: ATCC 64124, 24 h
Candida albicans [17] = test: Antifungal activity against fluconazole/ITC-resistant Candida albicans ATCC MYA-1003 measured after 48 hrs by CLSI M27-A3 protocol based method; type: functional; details: ATCC MYA-1003, 48 h
[18] = Selectivity index, ratio of compound concentration showing <20 to <30% hemolysis in mouse RBC to MIC for fluconazole/ITC-resistant Candida albicans ATCC MYA-1003; type: toxicity; details: mouse red blood cells (RBC), read-out: Selectivity Index
[19] = Selectivity index, ratio of compound concentration showing <20 to <30% hemolysis in mouse RBC to MIC for Candida glabrata ATCC 2001; type: toxicity; details: mouse red blood cells (RBC), read-out: Selectivity Index
Pichia kudriavzevii = test: Antifungal activity against Candida krusei ATCC 6258 measured after 48 hrs by CLSI M27-A3 protocol based method; type: functional; details: ATCC 6258, 48 h
[20] = Hemolytic activity in mouse RBC at 7.8 ug/ml after 1 hr relative to control; type: ADME, cell-based, Erythrocyte; details: red blood cells (erythrocytes), read-out: Activity
Candida parapsilosis = test: Antifungal activity against Candida parapsilosis ATCC 22019 measured after 48 hrs by CLSI M27-A3 protocol based method; type: functional; details: Lodderomyces parapsilosis, ATCC 22019, 48 h
[21] = Selectivity index, ratio of CC50 for human A549 cells to MIC for fluconazole/ITC-resistant Candida albicans ATCC MYA-1237; type: toxicity; details: read-out: Selectivity Index
[22] = Hemolytic activity in mouse RBC at 31.3 ug/ml after 1 hr relative to control; type: ADME, cell-based, Erythrocyte; details: red blood cells (erythrocytes), read-out: Activity
[23] = Selectivity index, ratio of CC50 for human A549 cells to MIC for Candida glabrata ATCC 2001; type: toxicity; details: read-out: Selectivity Index
Candida albicans [24] = test: Selectivity ratio of MIC50 for antibiofilm activity against fluconazole/ITC-resistant Candida albicans ATCC 10231 assessed as reduction in sessile growth to MIC for fluconazole/ITC-resistant Candida albicans ATCC 10231; type: functional
BEAS-2B = test: Cytotoxicity against human BEAS2B cells after 24 hrs by resazurin based assay; type: cell-based
Candida albicans [25] = test: Selectivity ratio of MIC90 for antibiofilm activity against fluconazole/ITC-resistant Candida albicans ATCC 64124 assessed as reduction in sessile growth to MIC for fluconazole/ITC-resistant Candida albicans ATCC 64124; type: functional
Candida albicans [26] = test: Antifungal activity against fluconazole/ITC-susceptible Candida albicans ATCC MYA-2876 measured after 48 hrs by CLSI M27-A3 protocol based method; type: functional; details: ATCC MYA-2876, 48 h
[27] = Selectivity index, ratio of compound concentration showing <20 to <30% hemolysis in mouse RBC to MIC for Aspergillus nidulans ATCC 38163; type: toxicity; details: mouse red blood cells (RBC), read-out: Selectivity Index
[28] = Selectivity index, ratio of CC50 for human A549 cells to MIC for fluconazole/ITC-resistant Candida albicans ATCC 90819; type: toxicity; details: read-out: Selectivity Index
[29] = Selectivity index, ratio of compound concentration showing <20 to <30% hemolysis in mouse RBC to MIC for fluconazole/ITC-resistant Candida albicans ATCC 90819; type: toxicity; details: red blood cells (erythrocytes), read-out: Selectivity Index
Nakaseomyces glabratus = test: Antifungal activity against Candida glabrata ATCC 2001 measured after 48 hrs by CLSI M27-A3 protocol based method; type: functional; details: CBS 138, 48 h
[30] = Selectivity index, ratio of CC50 for human A549 cells to MIC for fluconazole/ITC-susceptible Candida albicans ATCC MYA-2876; type: toxicity; details: read-out: Selectivity Index
Candida albicans [31] = test: Selectivity ratio of MIC50 for antibiofilm activity against fluconazole/ITC-resistant Candida albicans ATCC 64124 assessed as reduction in sessile growth to MIC for fluconazole/ITC-resistant Candida albicans ATCC 64124; type: functional

Compound `C/C(=N\Nc1ccc(F)cc1)c1ccc(-c2ccc(/C(C)=N/Nc3ccc(F)cc3)cc2)cc1` has a selectivity ratio [1] of 1 to 32, a selectivity ratio [2] of 2.1 and a hemolysis at 1 h, 62.5 ug/ml [3] of 26.2%. The hemolysis at 1 h, 3.9 ug/ml [4] was 2.6%, the selectivity ratio [5] was 1 to 32 and the selectivity ratio [6] was 2.1. The MIC (Candida albicans [7]) was 1.95 µg/mL (≈ 4.29 µM), the selectivity ratio [8] was 1 to 32 and the selectivity ratio [9] was 1 to 32. The selectivity ratio [10] was 1 to 32, the MIC (Aspergillus flavus) was over 31.3 µg/mL and the Activity (Candida albicans [11]) was “Active”. It also gave a selectivity ratio [12] of 8.5, an MIC (Aspergillus nidulans) of 7.8 µg/mL (≈ 17.2 µM) and a selectivity ratio [13] of 4.3. For the same compound, the IC50 [14] was over 30 µM, the CC50 (A549) was 16.6 µg/mL (≈ 36.5 µM) and the hemolysis at 1 h, 1.95 ug/ml [15] was 2.6%. It also gave an MIC50 (Candida albicans [16]) of 16 µg/mL (≈ 35.2 µM), an MIC90 (Candida albicans [16]) of over 32 µg/mL and an MIC (Candida albicans [17]) of 7.8 µg/mL (≈ 17.2 µM). It also gave a selectivity ratio [18] of 1 to 32, a selectivity ratio [19] of 1 to 32 and an MIC (Pichia kudriavzevii) of 1.95 µg/mL (≈ 4.29 µM). The hemolysis at 1 h, 7.8 ug/ml [20] was 5.9%, the MIC (Candida parapsilosis) was 15.6 µg/mL (≈ 34.3 µM) and the selectivity ratio [21] was 2.1. For the same compound, the hemolysis at 1 h, 31.3 ug/ml [22] was 9.5%, the selectivity ratio [23] was 1.1 and the selectivity ratio (Candida albicans [24]) was 4. For the same compound, the CC50 (BEAS-2B) was 10.7 µg/mL (≈ 23.5 µM), the selectivity ratio (Candida albicans [25]) was 8 and the MIC (Candida albicans [26]) was 3.9 µg/mL (≈ 8.58 µM). It also gave a selectivity ratio [27] of 1 to 32, a selectivity ratio [28] of 2.1 and a selectivity ratio [29] of 1 to 32. For the same compound, the MIC (Nakaseomyces glabratus) was 15.6 µg/mL (≈ 34.3 µM), the selectivity ratio [30] was 4.3 and the selectivity ratio (Candida albicans [31]) was 4.
